{"source": "ChEMBL document CHEMBL5042502", "about": "“Discovery of Potent and Selective 2-(Benzylthio)pyrimidine-based DCN1-UBC12 Inhibitors for Anticardiac Fibrotic Effects” (J Med Chem, 2022)", "key": {"Cardiac fibroblast": {"system": "Cardiac fibroblast", "test": "Inhibition of DCN1 in Ang II-treated Sprague-Dawley rat cardiac fibroblast assessed as inhibited cell migration at 0.1 to 3 uM incubated for 24 hrs stained with crystal violet by transwell migration assay", "type": "cell-based", "details": "Sprague-Dawle, dose 0.1-3 µM"}, "[1]": {"system": "Fibroblast of cardiac tissue", "test": "Reversal of Ang II-induced decrease in Nrf2 secretion in mouse cardiac fibroblast at 1 uM preincubated for 2 hrs followed by Ang-II stimulation and further incubated for 24 hrs by western blot analysis", "type": "functional, cell-based", "details": "time 26.0 hrs"}, "[2]": {"system": "Fibroblast of cardiac tissue", "test": "Reversal of TGF-beta-induced increase in collagen I secretion in mouse cardiac fibroblast at 1 uM preincubated for 2 hrs followed by TGF-beta stimulation and further incubated for 24 hrs by Western blot analysis", "type": "functional, cell-based", "details": "time 26.0 hrs"}, "DCN1-like protein 3": {"biological_target": "T1, DCN1-like protein 3 (Homo sapiens, UniProt Q8IWE4)", "T1 sequence (Q8IWE4 whole entry)": "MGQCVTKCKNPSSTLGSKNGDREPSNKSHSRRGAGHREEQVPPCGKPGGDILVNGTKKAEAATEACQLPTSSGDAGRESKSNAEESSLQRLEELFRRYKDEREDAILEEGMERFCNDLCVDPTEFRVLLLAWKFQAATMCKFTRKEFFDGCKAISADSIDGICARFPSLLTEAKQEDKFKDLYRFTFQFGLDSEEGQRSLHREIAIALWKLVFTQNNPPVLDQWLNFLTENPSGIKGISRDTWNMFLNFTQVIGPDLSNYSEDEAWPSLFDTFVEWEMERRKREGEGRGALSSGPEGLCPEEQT", "test": "Binding affinity to DCN3 (unknown origin) assessed as inhibitory constant"}, "[3]": {"test": "Toxicity in 24 hr starved C57BL/6 mouse assessed as pathological change in heart at 2 g/Kg administered via gavage measured after 2 weeks by H and E staining based histopathological analysis", "type": "tissue-based", "details": "in vivo, po, 2000 mg/kg"}, "[4]": {"system": "Fibroblast of cardiac tissue", "test": "Reversal of Ang II-induced increase in DCN1 secretion in mouse cardiac fibroblast at 1 uM preincubated for 2 hrs followed by Ang-II stimulation and further incubated for 24 hrs by western blot analysis", "type": "functional, cell-based", "details": "time 26.0 hrs"}, "[5]": {"system": "Fibroblast of cardiac tissue", "test": "Effect on Ang II-induced in Cul5 neddylation in mouse cardiac fibroblast at 1 uM preincubated for 2 hrs followed by Ang-II stimulation and further incubated for 24 hrs by western blot analysis", "type": "functional, cell-based", "details": "time 26.0 hrs"}, "[6]": {"test": "Toxicity in 24 hr starved C57BL/6 mouse assessed as change in body weight at 2 g/Kg administered via gavage measured upto 2 weeks", "details": "in vivo, po, 2000 mg/kg"}, "[7]": {"test": "Toxicity in 24 hr starved C57BL/6 mouse assessed as animal survival at 2 g/Kg administered via gavage measured upto 2 weeks", "details": "in vivo, po, 2000 mg/kg"}, "Homo sapiens": {"organism": "Homo sapiens", "test": "Inhibition of NEDD8-UBC12 (unknown origin) interaction in presence of ATP at 100 uM by densitometry", "details": "time 10.0 min"}, "DCN1-like protein 5": {"biological_target": "T2, DCN1-like protein 5 (Homo sapiens, UniProt Q9BTE7)", "T2 sequence (Q9BTE7 whole entry)": "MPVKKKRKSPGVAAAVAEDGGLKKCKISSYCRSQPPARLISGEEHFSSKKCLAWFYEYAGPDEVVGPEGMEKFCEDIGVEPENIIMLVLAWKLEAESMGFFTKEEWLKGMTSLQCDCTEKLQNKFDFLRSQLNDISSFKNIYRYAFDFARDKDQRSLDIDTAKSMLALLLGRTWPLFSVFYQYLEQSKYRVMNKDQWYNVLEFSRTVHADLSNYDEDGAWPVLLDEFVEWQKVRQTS", "test": "Binding affinity to DCN5 (unknown origin) assessed as inhibitory constant"}, "DCN1-like protein 1": {"biological_target": "DCN1-like protein 1 (Homo sapiens, UniProt Q96GG9)", "sequence (Q96GG9 whole entry)": "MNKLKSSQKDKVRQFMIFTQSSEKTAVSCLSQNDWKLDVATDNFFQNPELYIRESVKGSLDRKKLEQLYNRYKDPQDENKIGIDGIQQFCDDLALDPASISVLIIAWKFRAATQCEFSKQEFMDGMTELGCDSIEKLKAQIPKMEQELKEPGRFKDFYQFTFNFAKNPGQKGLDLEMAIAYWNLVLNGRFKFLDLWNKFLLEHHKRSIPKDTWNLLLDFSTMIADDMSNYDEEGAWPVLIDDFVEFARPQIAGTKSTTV", "test": "Binding affinity to […] DCN1 (unknown origin) assessed as dissociation constant incubated for upto 180 secs by label-free biolayer interferometry assay"}, "[8]": {"system": "Fibroblast of cardiac tissue", "test": "Effect on Ang II-induced in Cul4B neddylation in mouse cardiac fibroblast at 1 uM preincubated for 2 hrs followed by Ang-II stimulation and further incubated for 24 hrs by western blot analysis", "type": "functional, cell-based", "details": "time 26.0 hrs"}, "[9]": {"system": "Fibroblast of cardiac tissue", "test": "Reversal of Ang II-induced increase in cullin 3 secretion in mouse cardiac fibroblast at 1 uM preincubated for 2 hrs followed by Ang-II stimulation and further incubated for 24 hrs by western blot analysis", "type": "functional, cell-based", "details": "time 26.0 hrs"}}, "note": "pKd, pKi: −log10 of the molar value. Active and inactive are the calls of the source. The calls are words filed in the database; no cut-off is given here."}
{"smiles": "COc1cc(-c2nc(SCc3ccc(Cl)cc3)nc(Sc3nnnn3C)c2C#N)cc(OC)c1OC", "values": [{"measurement": "inhibition", "setting": "Cardiac fibroblast", "value": "Active"}, {"measurement": "Activity", "setting": "[1]", "value": "Active"}, {"measurement": "Activity", "setting": "[2]", "value": "Active"}, {"measurement": "pKi", "setting": "DCN1-like protein 3", "value": 3.41}, {"measurement": "Activity", "setting": "[3]", "value": "Non-Toxic"}, {"measurement": "Activity", "setting": "[4]", "value": "Active"}, {"measurement": "Activity", "setting": "[5]", "value": "Active"}, {"measurement": "Activity", "setting": "[6]", "value": "Non-Toxic"}, {"measurement": "Activity", "setting": "[7]", "value": "Non-Toxic"}, {"measurement": "inhibition", "setting": "Homo sapiens", "value": "inactive"}, {"measurement": "pKi", "setting": "DCN1-like protein 5", "value": 4.54}, {"measurement": "pKd", "setting": "DCN1-like protein 1", "value": 7.59}, {"measurement": "Activity", "setting": "[8]", "value": "Active"}, {"measurement": "Activity", "setting": "[9]", "value": "Active"}]}
